Results: ChEMBL document CHEMBL1671755, “Prevalence, mutation patterns, and effects on protease inhibitor susceptibility of the L76V mutation in HIV-1 protease” (2010)

Key:
Type in all cases: functional
[1] = test system: Human immunodeficiency virus 1; experiment: Antiviral activity against Human immunodeficiency virus 1 harboring M46I mutation in viral protease assessed as fold change in drug susceptibility relative to wild type
[2] = test system: Human immunodeficiency virus 1; experiment: Antiviral activity against Human immunodeficiency virus 1 harboring M46I, M46L, I54V, and V82A mutations in viral protease assessed as fold change in drug susceptibility relative to wild type
[3] = test system: Human immunodeficiency virus 1; experiment: Antiviral activity against Human immunodeficiency virus 1 harboring M46I, M46L, I54V, V82A and L76V mutations in viral protease assessed as fold change in drug susceptibility relative to wild type
[4] = test system: Human immunodeficiency virus 1; experiment: Antiviral activity against Human immunodeficiency virus 1 harboring protease inhibitor resistance-associated mutations assessed as fold change in drug susceptibility relative to wild type
[5] = test system: Human immunodeficiency virus 1; experiment: Antiviral activity against Human immunodeficiency virus 1 harboring M46I and L76V mutations in viral protease assessed as fold change in drug susceptibility relative to wild type
[6] = test system: Human immunodeficiency virus 1; experiment: Antiviral activity against Human immunodeficiency virus 1 harboring protease inhibitor resistance-associated mutations and protease L76V mutation in viral protease assessed as fold change in drug susceptibility relative to wild type

CC(C)CN(C[C@@H](O)[C@H](Cc1ccccc1)NC(=O)O[C@H]1CCOC1)S(=O)(=O)c1ccc(N)cc1 [AMPRENAVIR]
fold change (FC) [1]: 1.5
fold change (FC) [2]: 3.7
fold change (FC) [3]: 19.3
fold change (FC) [4]: 21.1
fold change (FC) [5]: 6.7
fold change (FC) [6]: 70.9

COC(=O)N[C@H](C(=O)N[C@@H](Cc1ccccc1)[C@@H](O)CN(Cc1ccc(-c2ccccn2)cc1)NC(=O)[C@@H](NC(=O)OC)C(C)(C)C)C(C)(C)C [ATAZANAVIR]
fold change (FC) [1]: 4.3
fold change (FC) [2]: 5.7
fold change (FC) [3]: 2.1
fold change (FC) [4]: 75.2
fold change (FC) [5]: 0.9
fold change (FC) [6]: 11.3

CC(C)CN(C[C@@H](O)[C@H](Cc1ccccc1)NC(=O)O[C@H]1CO[C@H]2OCC[C@H]21)S(=O)(=O)c1ccc(N)cc1 [DARUNAVIR]
fold change (FC) [1]: 0.9
fold change (FC) [2]: 1.1
fold change (FC) [3]: 4.2
fold change (FC) [4]: 8.5
fold change (FC) [5]: 2.8
fold change (FC) [6]: 37.4

CC(C)(C)NC(=O)[C@@H]1CN(Cc2cccnc2)CCN1C[C@@H](O)C[C@@H](Cc1ccccc1)C(=O)N[C@H]1c2ccccc2C[C@H]1O.O [INDINAVIR]
fold change (FC) [1]: 3.4
fold change (FC) [2]: 9.7
fold change (FC) [3]: 37.4
fold change (FC) [4]: 40.1
fold change (FC) [5]: 8.6
fold change (FC) [6]: 60.1

Cc1cccc(C)c1OCC(=O)N[C@@H](Cc1ccccc1)[C@@H](O)C[C@H](Cc1ccccc1)NC(=O)[C@H](C(C)C)N1CCCNC1=O [LOPINAVIR]
fold change (FC) [1]: 1.6
fold change (FC) [2]: 28
fold change (FC) [3]: 163.1
fold change (FC) [4]: 46.1
fold change (FC) [5]: 9.9
fold change (FC) [6]: 174.2

Cc1c(O)cccc1C(=O)N[C@@H](CSc1ccccc1)[C@H](O)CN1C[C@H]2CCCC[C@H]2C[C@H]1C(=O)NC(C)(C)C [NELFINAVIR]
fold change (FC) [1]: 7.9
fold change (FC) [2]: 13.9
fold change (FC) [3]: 14.8
fold change (FC) [4]: 78.3
fold change (FC) [5]: 2.5
fold change (FC) [6]: 36.1

CC(C)c1nc(CN(C)C(=O)N[C@H](C(=O)N[C@@H](Cc2ccccc2)C[C@H](O)[C@H](Cc2ccccc2)NC(=O)OCc2cncs2)C(C)C)cs1 [RITONAVIR]
fold change (FC) [1]: 2.2
fold change (FC) [2]: 37.6
fold change (FC) [3]: 63.6
fold change (FC) [4]: 129.7
fold change (FC) [5]: 2.7
fold change (FC) [6]: 113.2

CC(C)(C)NC(=O)[C@@H]1C[C@@H]2CCCC[C@@H]2CN1C[C@@H](O)[C@H](Cc1ccccc1)NC(=O)[C@H](CC(N)=O)NC(=O)c1ccc2ccccc2n1 [SAQUINAVIR]
fold change (FC) [1]: 1.2
fold change (FC) [2]: 2.8
fold change (FC) [3]: 3.2
fold change (FC) [4]: 197.4
fold change (FC) [5]: 0.7
fold change (FC) [6]: 43.5

CCC[C@@]1(CCc2ccccc2)CC(O)=C([C@H](CC)c2cccc(NS(=O)(=O)c3ccc(C(F)(F)F)cn3)c2)C(=O)O1 [TIPRANAVIR]
fold change (FC) [1]: 1.2
fold change (FC) [2]: 1.7
fold change (FC) [3]: 1.2
fold change (FC) [4]: 6.7
fold change (FC) [5]: 0.8
fold change (FC) [6]: 3.6
